The text below walks through data of patent US20250091994A1, “RAS/RAF BINDING INHIBITOR COMPOUND” (NATIONAL UNIVERSITY CORPORATION KOBE UNIVERSITY, priority 2021, published 2025).

In assay [1] the target is GTPγS-bound human HRasG12V / human c-Raf-1 Ras binding domain (RBD) (Homo sapiens (Human), UniProt P01112, G12V). The experiment in a line: Ras-Raf binding inhibition ELISA. The procedure: The in vitro Ras-Raf binding inhibitory activity of the compound of the present invention was evaluated by an ELISA method (Enzyme-Linked ImmunoSorbent Assay) described below.
Ras and Raf used upon the evaluation were purified and activated by the following method.
Using a pGEX6P-1 vector (GE Healthcare), human HRasG12V (full length, 1-189 amino acid residues) and human c-Raf-1 Ras binding domain (RBD) (50-131 amino acid residues) were each allowed to express as a fusion body with glutathione S-transferase (GST) in E. coli.
GST-HRasG12V-expressing cells were subjected to ultrasonication in a buffer {50 mM Tris-HCl pH 7.4, 150 mM NaCl, 5 mM MgCl2, 1 mM ethylenediaminetetraacetic acid (EDTA), 1 mM dithiothreitol (DTT), 10% glycerol, and 1% Triton-X100}, and were then centrifuged at 100,000×g for 30 minutes, so as to collect the supernatant as a Ras protein fraction. HRasG12V in the supernatant was immobilized on a glutathione-agarose resin, and GST was then cleaved with PreScission Protease (GE Healthcare) for purification. The obtained HRasG12V was mixed with guanosine 5′-O-[gamma-thio]triphosphate trisodium salt (GTPTS) of 1000 times higher concentration at 30° C. for 1 hour, and thereafter, 20 mM MgCl2 (final concentration) was added to stop the reaction and collect the GTPgS-loaded HRasG12V as a product.
On the other hand, GST-c-Raf-1 RBD-expressing cells were subjected to ultrasonication in the same buffer as described above, and were then centrifuged at 100,000×g for 30 minutes, so as to collected the supernatant as a GST-c-Raf-1 RBD protein fraction.
The in vitro Ras-Raf binding inhibitory activity of the compound of the present invention was evaluated by an ELISA method described below.
GST-c-Raf-1 RBD diluted with a Ras-Raf binding buffer (50 mM Tris-HCl pH7.4, 150 mM NaCl, 5 mM MgCl2, 1 mM EDTA, and 1% Triton-X100) was added to each well of a glutathione-coated 96-well plate (Thermo Fisher Scientific.), and was incubated at 30° C. for 1 hour, to immobilize Raf on the well. The unbound free Raf was eliminated by washing the well with the Ras-Raf binding buffer three times. Subsequently, GTPTS-bound HRasG12V diluted with the Ras-Raf binding buffer and each compound solution (final DMSO concentration: 10%) were applied to each well, and the resulting mixture was then incubated at 30° C. for 1 hour, so that Ras and Raf were allowed to bind to each other. Thereafter, the plate was washed with the Ras-Raf binding buffer twice, and was then subjected to a blocking treatment at room temperature for 20 minutes, using TBS-Tween {10 mM Tris-HCl pH 7.4, 150 mM NaCl, and 0.05% (w/v) Tween-20}-5% (w/v) bovine serum albumin (BSA). After that, an anti-HRas antibody (C-20, Santa Cruz) or an anti-HRas antibody (259, Santa Cruz), which had been 1000 times diluted with TBS-Tween-5% BSA, was added to the reaction mixture, and incubated at room temperature for 1 hours. After the treatment with the primary antibody, the plate was washed with TBS-Tween-5% BSA three times, and a horseradish peroxidase-labeled secondary antibody against rabbit immunoglobulin G (GE Healthcare) of 1000 times diluted with TBS-Tween-5% BSA, was added to the plate, followed by incubation at room temperature for 1 hour. After the treatment with the secondary antibody, the plate was washed with TBS-Tween-5% BSA three times, and a substrate solution (TMB) was then added to the plate, followed by incubation at room temperature for 15 minutes for coloration. Finally, 2 M H2SO4 was added to stop color development (coloration reaction kit: Nacalai Tesque). The absorbance at 450 nm (OD450) was measured, so that the color intensity was quantified. Inhibition by the test compound was determined according to the following equation: […]
IC50 (*) in which the anti-HRas antibody (259, Santa Cruz) was used
For orientation: ELISA stands for enzyme-linked immunosorbent assay.

Assay [2] relates to promyelocytic leukemia cells HL60 (N-RasQ61L). Description: Cell growth inhibition, suspension cells HL60. In kind it is cell-based. The conditions noted are these: Homo sapiens, HL-60, 72 hours; for inhibition at 1.1 µM: read-out: HL-60 (NRasQ61L) % inhibition at 1.1 μM (*); for inhibition at 3.3 µM: read-out: HL-60 (NRasQ61L) % inhibition at 3.3 μM (**). As for the experimental part: (§1) The cell growth inhibitory activity of the compound of the present invention on human culture cells having active-type mutation in Ras was evaluated by the below-mentioned method using suspension cancer cells {acute lymphoblastic leukemia cells CCRF-CEM (K-RasG12D), promyelocytic leukemia cells HL60 (N-RasQ61L), acute lymphoblastic leukemia cells MOLT4 (N-RasG12C), and small cell lung cancer cells SHP77 (K-RasG12V)} and adherent cancer cells {large bowel cancer cells SW480 (K-RasG12V) and large bowel cancer cell SW620 (K-RasG12V)}.
(Case of suspension cells) The cells suspended in a medium containing 0.5% (v/v) fetal bovine serum (FBS) and each compound solution (final DMSO concentration: 1%) were seeded on a 96-well plate (2 to 4×10^4 cells/well), and the resulting mixture was then cultured at 37° C. in the presence of 5% CO2 for 72 hours.
(§2) Thereafter, the number of viable cells was measured using Cell Counting Reagent (Nacalai Tesque) in accordance with the manufacturer's instructions. Inhibition by the test compound was determined according to the following equation: […]

The subject of assay [3] is large bowel cancer cell SW620 (K-RasG12V). Description: Cell growth inhibition, adherent cells SW620. In kind it is cell-based. The conditions noted are these: Homo sapiens, SW-620, 72 hours; for inhibition at 1 µM: read-out: SW620 (KRasG12V) % inhibition at 1 μM; for inhibition at 3.2 µM: read-out: SW620 (KRasG12V) % inhibition at 3.2 μM (***). The procedure:
as §1
(Case of adherent cells) The cells suspended in a medium containing 10% FBS (1 to 2×10^4 cells/well) were seeded on a 96-well plate, and were then cultured at 37° C. in the presence of […]. Thereafter, the medium was exchanged with a medium containing […], to which each compound solution (final DMSO concentration: […]) had been added, and the cells were then cultured at 37° C. in the presence of […] for 72 hours.
as §2

[4] abbreviates: anti-HRas antibody C-20, read-out: ELISA IC50 (μM): 1st Ab_C-20.
The mark [5] stands for this setting: anti-HRas antibody 259 (*), read-out: ELISA IC50 (μM): 1st Ab_259 (*).

Like-named read-outs stand apart in the source and are kept apart here.

GTPγS-bound human HRasG12V / human c-Raf-1 Ras binding domain (RBD), sequence (P01112 whole entry G12V, the tested form may be a part): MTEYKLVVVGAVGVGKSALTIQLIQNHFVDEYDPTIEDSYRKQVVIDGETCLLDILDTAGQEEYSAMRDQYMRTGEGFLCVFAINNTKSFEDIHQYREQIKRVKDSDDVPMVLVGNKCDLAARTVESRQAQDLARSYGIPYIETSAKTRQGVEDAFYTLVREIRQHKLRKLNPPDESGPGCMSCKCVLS

For `CC(=O)N1/C(=C\c2cc(-c3ccccc3-c3ccccc3)c3cc(C(=O)N4CCN(C5COC5)CC4)ccc3n2)C(=O)c2ccccc21` [Example 95, (Z)-2-((4-([1,1′-biphenyl]-2-yl)-6-(4-(oxetan-3-yl)-piperazine-1-carbonyl)quinolin-2-yl)methylene)-1-acetylindolin-3-one], the IC50 in assay [1] (setting [4]) came to 0.44 µM. For the same compound, the inhibition at 1.1 µM in assay [2] stood at 88%. In assay [3], the inhibition at 1 µM was 70%.

`CC(=O)N1/C(=C\c2cc(-c3cccc4cccnc34)c3cc(C(=O)N4CCOCC4)ccc3n2)C(=O)c2ccccc21` [Example 91, (Z)-1-acetyl-2-((6-(morpholine-4-carbonyl)-[4,8′-biquinolin]-2-yl)-methylene)indolin-3-one]: the IC50 in assay [1] (setting [4]) was found to be 0.87 µM. Moreover, the inhibition at 3.3 µM in assay [2] is 97%. In addition, the inhibition at 1 µM in assay [3] was determined as 70%.

`CC(=O)N1/C(=C\c2cc(-c3cccc(-c4ccccc4)c3)c3cc(C(=O)N4CCOCC4)ccc3n2)C(=O)c2ccccc21` [Example 88, (Z)-2-((4-([1,1′-biphenyl]-3-yl)-6-(morpholine-4-carbonyl)quinolin-2-yl)methylene)-1-acetylindolin-3-one]: the IC50 in assay [1] (setting [4]) came out at 0.98 µM. For the same compound, the inhibition at 3.3 µM in assay [2] came to 89%. Besides, in assay [3], the inhibition at 1 µM was 46%.

As for `CC(=O)N1C(=Cc2cc(-c3cccnc3-c3ccccc3)c3cc(C(=O)N4CCOCC4)ccc3n2)C(=O)c2ccccc21` [Example 94, 1-acetyl-2-((6-(morpholine-4-carbonyl)-4-(2-phenylpyridin-3-yl)quinolin-2-yl)-methylene)indolin-3-one], the inhibition at 3.3 µM in assay [2] is 96%. Also, the inhibition at 1 µM in assay [3] was found to be 82%.

In the case of `CC(=O)N1/C(=C\c2cc(-c3ccccc3-c3ccccc3)c3cc(C(=O)O)ccc3n2)C(=O)c2ccccc21` [Example 128, (Z)-4-([1,1′-biphenyl]-2-yl)-2-((1-acetyl-3-oxo-indolin-2-ylidene)-methyl)quinoline-6-carboxylic acid], in assay [1] (setting [4]), the 50% inhibitory concentration (IC50) is 0.49 µM. Besides, the inhibition at 3.3 µM in assay [2] was found to be 96%. Besides, in assay [3], the inhibition at 1 µM amounted to 70%.

In the case of `CC(=O)N1/C(=C\c2cc(-c3cn[nH]c3)c3cc(C(=O)N4CCOCC4)ccc3n2)C(=O)c2ccccc21` [Example 170, (Z)-1-acetyl-2-((6-(morpholine-4-carbonyl)-4-(1H-pyrazol-4-yl)quinolin-2-yl)-methylene)indolin-3-one], 1 µM produced 66.8% inhibition in assay [1]. Further, in assay [1] (setting [4]), the half-inhibitory concentration (IC50) is 0.5 µM. For the same compound, the inhibition at 3.2 µM in assay [3] stood at 41.6%.

Regarding `CC(=O)N1/C(=C\c2cc(-c3cnn(C)c3)c3cc(CNC4CCOCC4)ccc3n2)C(=O)c2ccccc21` [Example 205, (Z)-1-acetyl-2-((4-(1-methyl-1H-pyrazol-4-yl)-6-(((tetrahydro-2H-pyran-4-yl)amino)-methyl)quinolin-2-yl)methylene)-indolin-3-one], 1 µM produced 66.3% inhibition in assay [1]. In addition, the IC50 in assay [1] (setting [4]) was 0.7 µM. Besides, the inhibition at 3.2 µM in assay [3] was 37%.

As for `CC(=O)N1/C(=C/c2cc(-c3ccnc4ccccc34)c3cc(C(=O)N4CCOCC4)ccc3n2)C(=O)c2ccccc21` [Example 117, (E)-1-acetyl-2-((6-(morpholine-4-carbonyl)-[4,4′-biquinolin]-2-yl)-methylene)indolin-3-one], in assay [2], the inhibition at 3.3 µM was 94%. Moreover, in assay [3], the inhibition at 1 µM was found to be 66%.

In assay [1], `CC(=O)N1/C(=C\c2cc(-c3ncn(C)n3)c3cc(C(=O)N4CCOCC4)ccc3n2)C(=O)c2ccccc21` [Example 188, (Z)-1-acetyl-2-((4-(1-methyl-1H-1,2,4-triazol-3-yl)-6-(morpholine-4-carbonyl)quinolin-2-yl)methylene)-indolin-3-one] showed an inhibition at 1 µM of 53.7%. The IC50 in assay [1] (setting [4]) came out at 0.9 µM. Moreover, the inhibition at 3.2 µM in assay [3] was 79.3%.

As to `CC(=O)N1/C(=C\c2cc(-c3cnn(C)c3)c3cc(C(=O)N4CCOCC4)ccc3n2)C(=O)c2ccccc21` [Example 171, (Z)-1-acetyl-2-((4-(1-methyl-1H-pyrazol-4-yl)-6-(morpholine-4-carbonyl)quinolin-2-yl)methylene)-indolin-3-one], the inhibition at 1 µM in assay [1] was 72%. For the same compound, in assay [1] (setting [4]), the IC50 is 0.4 µM. The inhibition at 3.2 µM in assay [3] turned out to be 79.5%.

For `CC(=O)N1/C(=C\c2cc(-c3ccccc3-c3ccccc3)c3cc(C(=O)N4CCOCC4)ccc3n2)C(=O)c2ccccc21` [Example 89, (Z)-2-((4-([1,1′-biphenyl]-2-yl)-6-(morpholine-4-carbonyl)quinolin-2-yl)methylene)-1-acetylindolin-3-one], the IC50 in assay [1] (setting [4]) was 0.5 µM. For the same compound, the inhibition at 1.1 µM in assay [2] was found to be 95%. In assay [3], the inhibition at 1 µM was found to be 71%.

Consider `CC(=O)N1/C(=C\c2ccc3cc(CNC4CCN(C5COC5)CC4)ccc3n2)C(=O)c2ccccc21` [Example 138, (Z)-1-acetyl-2-((6-(((1-(oxetan-3-yl)piperidin-4-yl)amino)meth-yl)quinolin-2-yl)-methylene)indolin-3-one], for which, in assay [1] (setting [5]), the IC50 is 0.88 µM. For the same compound, the inhibition at 3.3 µM in assay [2] amounted to 65%.

In the case of `CC(=O)N1/C(=C\c2nc3cc(C(=O)N4CC(C)OC(C)C4)ccc3s2)C(=O)c2ccccc21` (stereo not shown) [Example 98, (Z)-1-acetyl-2-((5-(2,6-dimethyl-morpholine-4-carbonyl)benzo [d]thiazol-2-yl)-methylene)indolin-3-one], in assay [1] (setting [5]), the half-inhibitory concentration (IC50) is 0.68 µM. Moreover, in assay [2] (10 μM (***), read-out: HL-60 (NRasQ61L) % inhibition at 10 μM (***)), the inhibition at 10 µM was 100%.

`CC(=O)N1/C(=C\c2ccc(C(=O)N3CCOCC3)cn2)C(=O)c2ccccc21` [Example 70, (Z)-1-acetyl-2-((5-(morpholine-4-carbonyl)pyridin-2-yl)methylene)-indolin-3-one]: the IC50 in assay [1] (setting [4]) amounted to 14 µM. Further, the inhibition at 1 µM in assay [2] (1 μM, read-out: HL-60 (NRasQ61L) % inhibition at 1 μM) is 33%.

Broadly, the IC50 is the concentration at which inhibition is half-maximal. For orientation: inhibition means the percentage by which the read-out fell short of the control.
